Columns and labels:
[1] = Strip test screening of various compounds (Example 17, FIGS. 10-11; strip composition not stated)
Protocol: Now referring to FIG. 10, the pain relief medication—ASA, ibuprofen and acetaminophen were screened in the presence of alcohol (Ethanol)—50 ml water and 50 ml of 40% vol/vol ethanol.
Now referring to FIG. 11, various sweetening agents or table salts were dissolved in 75 ml of filtered water and exposed to UV lamp for 3 minutes or 5 minutes.

[2] = Strip test, Screening Composition 2 (Examples 6-10): fluorescence under UV after contact with dissolved specimen; conditions: FIGS. 3-4; observed under UV light, 3 to 5 minutes
Description: (§1) Prior to testing, the specimen of substance to be tested is placed directly into a solvent. Preferably, the solvent is a solvent such as distilled or filtered water. If the specimen is in tablet form, it should be crushed into a powder and then added to the solvent. If the specimen is in another form, it is preferably disaggregated into small pieces. The powder or pieces are then left to sit in the solvent until mixed in and/or dissolved for a period ranging from a few seconds to minutes, hours or even days before it may be tested with the composition and/or strip test of the present invention. Preferably, the contact with the solvent is at least eight hours. A liquid or gel form can be put directly into the solvent. […]
For testing, the strip test prepared above is placed under UV light in a room with reduced lighting to allow the reaction to be observed, and is contacted with the specimen of substance prepared above. […] In the presence of a predicted adverse reaction of the substance, the strip test will show the absence of fluorescence or the fluorescence will decrease, or even completely disappear over the short period of time (about 3 to 5 minutes). […]
See FIGS. 3 and 4 for comparisons of adverse and non-adverse reaction results. The degree by which fluorescence disappears after initial exposure to the substance may be used to quantify the relative adverseness of the substance. […]

[3] = Strip test, Screening Composition 3 with Activator 1 / Activator 2 (Examples 11-16); conditions: FIGS. 5-8; 3 to 5 minutes under UV light
Protocol: Once the urine has been provided, it needs to be cooled to a temperature of 18.3° C. This is the best temperature for testing in this case. When preparing for the test, the urine should be divided into two different groups. The first group is to add Activator 1 and observe the reaction. The second group is to add Activator 2 and observe the reaction.
To perform the Activator 1 test, take approximately 20 ml of urine and add 5 ml of the activator solution. Allow this to sit for 20 minutes under ultraviolet light. Once the 20 minutes has passed, place the strip test under ultraviolet light in a darkened room and apply approximately 1 ml of urine/Activator 1 solution onto the strip test. After the urine/Activator 1 solution has been applied to the strip test, one simply observes the reaction. […]
See FIGS. 5 to 8 for comparisons of presence and absence of the contaminant biomarkers (protein crystals) reaction results. The degree by which fluorescence disappears after initial exposure of urine/activator to the strip test may be used to quantify the relative presence of the factor in the urine. For example, a slow disappearance of fluorescence represents less presence of the pesticide biomarker than a urine/activator sample for which the fluorescence disappears rapidly over the course of the testing procedure.

[4] = Strip test, Screening Composition 1 (Examples 1-5): fluorescence under UV after contact with dissolved specimen; conditions: FIG. 9; increasing amounts dissolved in 50 ml of filtered water; strip test from Example 1
Description: as §1, with “of substance is placed” for “of substance to be tested is placed”, “a powder form and then” for “a powder and then”, “is in other form, it” for “is in another form, it”, “disaggregated into smaller pieces. The” for “disaggregated into small pieces. The”, “solvent until dissolved, for a” for “solvent until mixed in and/or dissolved for a”, “a few second to minutes,” for “a few seconds to minutes,”
The contacted test strip is then immediately observed under UV light in a dark room. In the presence of a predicted adverse reaction of the substance, the strip test will show the absence of fluorescence, or the fluorescence will decrease, or even completely disappear over a short period of time (about 90 seconds). […] According to an embodiment, the degree by which fluorescence disappears after initial exposure to the substance may be used to quantify the relative adverseness of the substance. For example, a slow disappearance of fluorescence represents a less adverse substance than a substance for which the fluorescence disappears rapidly over the course of the testing procedure. […]

## CC(=O)Nc1ccc(O)cc1 [acetaminophen]
[1]
  Effect of the medication on adverseness in the presence of alcohol (strip test): diminishes adverseness to varying degrees

## OC[C@H]1O[C@H](O[C@]2(CCl)O[C@H](CCl)[C@@H](O)[C@@H]2O)[C@H](O)[C@@H](O)[C@H]1Cl [Sucralose]
[1]
  Adverseness / fluorescence indicated by strip test, 5 minute exposure: depleted fluorescence, indicative of a mild adverse effect
  Adverseness indicated by strip test, initially: initially not adverse

## C[C@H](N)Cc1ccccc1 [Dextroamphetamine XR 5 mg, Dextroamphetamine]
[2]
  Strip test appearance (bright yellow glow = does not cause an adverse effect; dark color = may cause an adverse effect): turns a dark color
[3]
  Strip test appearance (bright yellow glow = does not cause an adverse effect; dark color = may cause an adverse effect): turns a dark color

## [Cl-].[Na+] [Sodium chloride (iodized), Sodium chloride]
[1]; FIG. 11, dissolved in 75 ml of filtered water, exposed to UV lamp for 3 minutes or 5 minutes
  Adverseness / fluorescence indicated by strip test: appears to not be adverse

## CC(=O)Oc1ccccc1C(=O)O [ASA]
[1]
  Effect of the medication on adverseness in the presence of alcohol (strip test): diminishes adverseness to varying degrees
[4]
  Adverseness indicated by strip test: appears to be adverse

## CCOc1nc2cccc(C(=O)O)c2n1Cc1ccc(-c2ccccc2-c2nnn[nH]2)cc1 [candesartan 8 mg, candesartan]
[2]
  Strip test appearance (bright yellow glow = does not cause an adverse effect; dark color = may cause an adverse effect): glows a bright yellow color
[3]
  Strip test appearance (bright yellow glow = does not cause an adverse effect; dark color = may cause an adverse effect): glows a bright yellow color

## CCO [Alcohol, Ethanol]
[1]
  Adverseness indicated by strip test, alcohol alone: appears to be adverse

## CC(C)Cc1ccc(C(C)C(=O)O)cc1 (stereo not shown) [ibuprofen]
[1]
  Effect of the medication on adverseness in the presence of alcohol (strip test): diminishes adverseness to varying degrees
[4]
  Adverseness indicated by strip test: is not

— patent publication US9851346B2, “Chemical sensitivity screening test” (BRYSON PATENTS INC., priority 2014, dated 2017)
